Here are results for 11 molecules from publication PMC6268585, “Synthesis, Molecular Properties Prediction, and Anti-staphylococcal Activity of N-Acylhydrazones and New 1,3,4-Oxadiazole Derivatives” (Molecules, 2012).

One data set concerns S. aureus 05H (MARSA). Description: MIC/MBC by broth microdilution, clinical strain 05H. Format: cell-based, Staphylococcus aureus. Particulars: for MIC / MBC: Staphylococcus aureus, 5 h; for MBC: read-out: Minimum Bactericidal Concentration (MBC). Here is the method:
(§1) The effluxing strains were kindly provided by Professor Simon Gibbons (University of London, London, UK), and the MARSA strains were obtained from the culture collection of the Laboratory of Microorganism Genetics (Department of Molecular Biology, Federal University of Paraíba). All strains were maintained on blood agar base slants (BAB, Difco Laboratories Ltd., Brazil), and prior to use, the cells were grown overnight at 37 °C in brain heart infusion broth (BHI, Difco Laboratories Ltd., Detroit, MI, USA).
(§2) The stock solutions of the compounds were prepared in DMSO which at its highest final concentration after dilution in the broth (4%) caused no inhibition of bacterial growth. The minimum inhibitory concentrations (MICs) of the compounds were determined in BHI by microdilution assay using a suspension of ca. 10^5 cfu/mL and a drug concentration range of 256 to 0.5 μg/mL (two-fold serial dilutions). The MIC is defined as the lowest concentration at which no growth is observed. The dye resazurin was used for better visualization of the bacterial growth. […] The minimum bactericidal concentration (MBC) is defined as the lowest drug concentration that gives no growth on the agar.
A general note: Broth dilution looks for growth in wells or tubes with falling amounts of substance.

Data set [1] relates to S. aureus RN-4220 (plasmid pUL5054, MsrA macrolide efflux protein). The data set is described as follows: MIC/MBC by broth microdilution, strain RN-4220. As to conditions: Staphylococcus aureus; for MBC: read-out: Minimum Bactericidal Concentration (MBC); for MIC: read-out: Minimum Inhibitory Concentration (MIC). Format: cell-based. As for the experimental part:
as §1, §2

The test system of data set [2] is S. aureus IS-58 (TetK tetracycline efflux protein). The data set is described as follows: MIC/MBC by broth microdilution, strain IS-58. As to conditions: Staphylococcus aureus; for MBC: read-out: Minimum Bactericidal Concentration (MBC); for MIC: read-out: Minimum Inhibitory Concentration (MIC). The format is cell-based. Here is the method: as §1, §2
In data set [3] the test system is S. aureus SA-1199B (overexpresses the NorA efflux protein). Description: MIC/MBC by broth microdilution, strain SA-1199B. The format is cell-based. Particulars: Staphylococcus aureus; for MBC: read-out: Minimum Bactericidal Concentration (MBC); for MIC: read-out: Minimum Inhibitory Concentration (MIC). As for the experimental part: as §1, §2
A further data set relates to S. aureus 007 (MARSA). The data set is described as follows: MIC/MBC by broth microdilution, clinical strain 007. The format is cell-based. As to conditions: Staphylococcus aureus; for MBC: read-out: Minimum Bactericidal Concentration (MBC); for MIC: read-out: Minimum Inhibitory Concentration (MIC). Here is the method:
as §1, §2

[4] abbreviates: read-out: Minimum Inhibitory Concentration (MIC).
The mark [5] stands for this setting: strain 007, first number of cell MIC-MBC.
The mark [6] stands for this setting: strain 007, second number of cell MIC-MBC.

Structures are written as SMILES. Values after ≈ are worked out from the molar mass of the structure shown. Where two headings read alike, the source gives them in different places.

Turning to `O=C(N[C@H](CO)[C@H](O)c1ccc([N+](=O)[O-])cc1)C(Cl)Cl` [Chloramphenicol, chloramphenicol, reference compound], the MIC (in the data set on S. aureus 05H (MARSA); in the data set on S. aureus 05H (MARSA) (setting [4]); in data set [1]; in data set [2]; in data set [3]; in the data set with S. aureus 007 (MARSA)) was 64 µg/mL (≈ 198 µM) throughout. Moreover, the MBC in the data set on S. aureus 05H (MARSA) worked out at 128 µg/mL (≈ 396 µM); in data set [1], 128 µg/mL (≈ 396 µM); in data set [2], 128 µg/mL (≈ 396 µM); in data set [3] it was 64 µg/mL (≈ 198 µM); with S. aureus 007 (MARSA), 128 µg/mL (≈ 396 µM).
With `O=C(NN=Cc1ccc([N+](=O)[O-])o1)c1ccccc1` [Compound 4a, N′-((5-nitrofuran-2-yl)methylene)benzohydrazide], the MBC with S. aureus 05H (MARSA) stood at 8 µg/mL (≈ 30.9 µM); in data set [3], 16 µg/mL (≈ 61.7 µM); in the data set with S. aureus 007 (MARSA) (setting [6]), 8 µg/mL (≈ 30.9 µM). In addition, the MIC in the data set with S. aureus 05H (MARSA) (setting [4]) is 8 µg/mL (≈ 30.9 µM); in data set [3] it was 16 µg/mL (≈ 61.7 µM); in the data set on S. aureus 007 (MARSA) (setting [5]), 8 µg/mL (≈ 30.9 µM).
In the case of `Cc1ccc(C(=O)NN=Cc2ccc([N+](=O)[O-])o2)cc1` [Compound 4b, 4-Methyl-N′-((5-nitrofuran-2-yl)methylene)benzohydrazide], the MBC in the data set on S. aureus 05H (MARSA) is 4 µg/mL (≈ 14.6 µM); in data set [3], 32 µg/mL (≈ 117 µM); in the data set with S. aureus 007 (MARSA) (setting [6]), 8 µg/mL (≈ 29.3 µM). For the same molecule, the MIC with S. aureus 05H (MARSA) (setting [4]) amounted to 4 µg/mL (≈ 14.6 µM); in data set [3], 16 µg/mL (≈ 58.6 µM); with S. aureus 007 (MARSA) (setting [5]), 8 µg/mL (≈ 29.3 µM).
Turning to `O=C(NN=Cc1ccc([N+](=O)[O-])o1)c1ccc([N+](=O)[O-])cc1` [Compound 4c, 4-Nitro-N′-((5-nitrofuran-2-yl)methylene)benzohydrazide], the MBC is 8 µg/mL (≈ 26.3 µM) in the data set with S. aureus 05H (MARSA), 32 µg/mL (≈ 105 µM) in data set [1], 32 µg/mL (≈ 105 µM) in data set [3] and 16 µg/mL (≈ 52.6 µM) with S. aureus 007 (MARSA) (setting [6]). The MIC in the data set with S. aureus 05H (MARSA) (setting [4]) was 8 µg/mL (≈ 26.3 µM); in data set [1], 16 µg/mL (≈ 52.6 µM); in data set [2] it was 16 µg/mL (≈ 52.6 µM); in data set [3], 32 µg/mL (≈ 105 µM); in the data set on S. aureus 007 (MARSA) (setting [5]), 8 µg/mL (≈ 26.3 µM).
For the molecule `O=C(NN=Cc1ccc([N+](=O)[O-])o1)c1ccc(Cl)cc1` [Compound 4d, 4-Chloro-N′-((5-nitrofuran-2-yl)methylene)benzohydrazide], the MIC against S. aureus 05H (MARSA) came out at 4 µg/mL (≈ 13.6 µM); with S. aureus 05H (MARSA) (setting [4]), 4 µg/mL (≈ 13.6 µM); in data set [3] it was 16 µg/mL (≈ 54.5 µM); in the data set with S. aureus 007 (MARSA) (setting [5]), 8 µg/mL (≈ 27.2 µM). The MBC with S. aureus 05H (MARSA) worked out at 4 µg/mL (≈ 13.6 µM); in data set [2], 16 µg/mL (≈ 54.5 µM); in data set [3], 16 µg/mL (≈ 54.5 µM); with S. aureus 007 (MARSA) (setting [6]), 8 µg/mL (≈ 27.2 µM). The “fold more potent than the standard chloramphenicol” value with S. aureus 05H (MARSA) (strain MARSA (05H)) came out at 16 fold.
Regarding `COc1ccc(C(=O)NN=Cc2ccc([N+](=O)[O-])o2)cc1` [Compound 4e, 4-Methoxy-N′-((5-nitrofuran-2-yl)methylene)benzohydrazide], the MBC in the data set with S. aureus 05H (MARSA) stood at 4 µg/mL (≈ 13.8 µM); in data set [1], 16 µg/mL (≈ 55.3 µM); in data set [3], 16 µg/mL (≈ 55.3 µM); with S. aureus 007 (MARSA) (setting [6]) it was 8 µg/mL (≈ 27.7 µM). The MIC in the data set on S. aureus 05H (MARSA) (setting [4]) is 4 µg/mL (≈ 13.8 µM); in data set [1], 16 µg/mL (≈ 55.3 µM); in data set [3], 16 µg/mL (≈ 55.3 µM); in the data set on S. aureus 007 (MARSA) (setting [5]), 8 µg/mL (≈ 27.7 µM).
The term melting point denotes the temperature of the solid-liquid transition. `CC(=O)N1N=C(c2ccccc2)OC1c1ccc([N+](=O)[O-])o1` (stereo not drawn) [Compound 5a, 1-(2-(5-Nitrofuran-2-yl)-5-phenyl-1,3,4-oxadiazol-3(2H)-yl)ethanone] showed a melting point of 178 to 180 °C. In the data set on S. aureus 05H (MARSA), the MBC was 16 µg/mL (≈ 53.1 µM). In addition, the MIC in the data set with S. aureus 05H (MARSA) (setting [4]) was 16 µg/mL (≈ 53.1 µM). Also, in data set [1], the MIC was 16 µg/mL (≈ 53.1 µM). For the same molecule, in data set [2], the MBC worked out at 16 µg/mL (≈ 53.1 µM) and the MIC stood at 16 µg/mL (≈ 53.1 µM). The MIC in the data set with S. aureus 007 (MARSA) (setting [5]) came out at 32 µg/mL (≈ 106 µM). The MBC in the data set with S. aureus 007 (MARSA) (setting [6]) was 32 µg/mL (≈ 106 µM).
Molecule `CC(=O)N1N=C(c2ccc(C)cc2)OC1c1ccc([N+](=O)[O-])o1` (stereo not drawn) [Compound 5b, 1-(2-(5-Nitrofuran-2-yl)-5-(methylphenyl)-1,3,4-oxadiazol-3(2H)-yl)ethanone] returned a melting point of 160 to 162 °C.
Turning to `CC(=O)N1N=C(c2ccc([N+](=O)[O-])cc2)OC1c1ccc([N+](=O)[O-])o1` (stereo not drawn) [Compound 5c, 1-(2-(5-Nitrofuran-2-yl)-5-(4-nitrophenyl)-1,3,4-oxadiazol-3(2H)-yl)ethanone], the melting point is 188 to 190 °C. In the data set with S. aureus 05H (MARSA), the MBC came to 8 µg/mL (≈ 23.1 µM). Further, the MIC with S. aureus 05H (MARSA) (setting [4]) was 8 µg/mL (≈ 23.1 µM). In data set [1], the MBC is 32 µg/mL (≈ 92.4 µM). Moreover, in data set [3], the MBC turned out to be 32 µg/mL (≈ 92.4 µM) and the MIC was 32 µg/mL (≈ 92.4 µM). The MIC with S. aureus 007 (MARSA) (setting [5]) worked out at 16 µg/mL (≈ 46.2 µM). Also, in the data set on S. aureus 007 (MARSA) (setting [6]), the MBC was 16 µg/mL (≈ 46.2 µM).
As for `CC(=O)N1N=C(c2ccc(Cl)cc2)OC1c1ccc([N+](=O)[O-])o1` (stereo not drawn) [Compound 5d], the melting point is 188 to 190 °C. For the same molecule, in the data set with S. aureus 05H (MARSA), the MIC worked out at 8 µg/mL (≈ 23.8 µM) and the MBC stood at 8 µg/mL (≈ 23.8 µM). For the same molecule, the MIC in the data set on S. aureus 05H (MARSA) (setting [4]) came out at 8 µg/mL (≈ 23.8 µM). Moreover, the MBC in data set [1] was 32 µg/mL (≈ 95.3 µM). Besides, the MBC in data set [3] was 32 µg/mL (≈ 95.3 µM). The MIC with S. aureus 007 (MARSA) (setting [5]) stood at 16 µg/mL (≈ 47.7 µM). In the data set on S. aureus 007 (MARSA) (setting [6]), the MBC came to 16 µg/mL (≈ 47.7 µM).
`COc1ccc(C2=NN(C(C)=O)C(c3ccc([N+](=O)[O-])o3)O2)cc1` (stereo not drawn) [Compound 5e, 1-(2-(5-Nitrofuran-2-yl)-5-(methoxyphenyl)-1,3,4-oxadiazol-3(2H)-yl)ethanone]: the melting point was 181 to 183 °C.
